Data set [1] deals with Histone deacetylase 1 (Homo sapiens, UniProt Q13547). Particulars: dose 500.0 nM, time 3.0 hrs.
Data set [2] addresses Histone deacetylase 3 (Homo sapiens, UniProt O15379). Particulars: dose 500.0 nM, time 3.0 hrs.
Data set [3] concerns the target T1, Protein deacetylase HDAC6 (Homo sapiens) (UniProt Q9UBN7).
T1 sequence (whole entry): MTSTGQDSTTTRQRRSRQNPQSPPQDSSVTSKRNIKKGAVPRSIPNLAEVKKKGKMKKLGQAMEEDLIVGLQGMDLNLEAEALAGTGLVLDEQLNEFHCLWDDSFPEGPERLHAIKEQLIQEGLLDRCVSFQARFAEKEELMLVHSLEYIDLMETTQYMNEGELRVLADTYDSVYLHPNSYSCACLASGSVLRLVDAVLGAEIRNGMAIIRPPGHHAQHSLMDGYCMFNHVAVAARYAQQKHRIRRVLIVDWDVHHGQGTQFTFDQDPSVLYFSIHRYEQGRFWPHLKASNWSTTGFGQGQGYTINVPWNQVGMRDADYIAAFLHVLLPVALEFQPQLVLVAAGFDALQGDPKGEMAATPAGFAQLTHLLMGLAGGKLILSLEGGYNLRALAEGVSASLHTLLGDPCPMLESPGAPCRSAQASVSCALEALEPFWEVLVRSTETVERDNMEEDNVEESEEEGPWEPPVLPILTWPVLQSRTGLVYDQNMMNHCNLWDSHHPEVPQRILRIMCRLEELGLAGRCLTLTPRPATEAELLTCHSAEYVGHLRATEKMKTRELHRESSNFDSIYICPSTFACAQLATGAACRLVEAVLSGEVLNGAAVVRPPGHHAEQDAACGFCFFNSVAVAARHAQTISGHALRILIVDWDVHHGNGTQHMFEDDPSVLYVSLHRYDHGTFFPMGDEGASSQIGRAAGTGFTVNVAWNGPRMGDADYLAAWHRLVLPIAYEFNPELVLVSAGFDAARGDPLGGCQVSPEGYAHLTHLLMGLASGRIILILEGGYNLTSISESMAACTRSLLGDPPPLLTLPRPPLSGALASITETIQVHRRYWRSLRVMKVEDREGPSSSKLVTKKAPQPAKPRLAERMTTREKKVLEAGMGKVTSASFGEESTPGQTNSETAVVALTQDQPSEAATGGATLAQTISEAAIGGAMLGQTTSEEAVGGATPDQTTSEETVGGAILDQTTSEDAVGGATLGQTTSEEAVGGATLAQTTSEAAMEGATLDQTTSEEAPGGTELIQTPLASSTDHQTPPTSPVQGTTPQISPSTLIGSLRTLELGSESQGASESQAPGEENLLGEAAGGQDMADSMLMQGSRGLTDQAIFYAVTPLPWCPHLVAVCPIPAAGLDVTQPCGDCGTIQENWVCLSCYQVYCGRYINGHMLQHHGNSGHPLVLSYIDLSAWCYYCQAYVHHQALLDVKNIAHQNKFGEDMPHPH
Particulars: dose 500.0 nM, time 3.0 hrs.

Data set [4] can be described thus: Retention time of compound by HPLC analysis. It counts as physicochemical.
The target of data set [5] is Histone deacetylase 11 (Homo sapiens, UniProt Q96DB2). Briefly: Inhibition of recombinant HDAC11 (unknown origin) preincubated for 1 hr followed by substrate addition and measured after 2 hrs by fluorescence based micro plate reader analysis.
Chain of Histone deacetylase 11 (Q96DB2 whole entry): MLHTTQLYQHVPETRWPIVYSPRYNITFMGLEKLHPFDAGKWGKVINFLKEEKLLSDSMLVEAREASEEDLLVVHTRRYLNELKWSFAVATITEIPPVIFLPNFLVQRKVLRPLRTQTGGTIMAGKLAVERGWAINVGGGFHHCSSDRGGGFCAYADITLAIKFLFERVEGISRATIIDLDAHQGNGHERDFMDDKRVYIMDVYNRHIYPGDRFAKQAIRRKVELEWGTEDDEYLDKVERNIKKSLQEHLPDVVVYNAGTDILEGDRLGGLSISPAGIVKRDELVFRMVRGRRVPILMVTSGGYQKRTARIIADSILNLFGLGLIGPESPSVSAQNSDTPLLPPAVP
Data set [6] has as its system HCT-116. The data set can be described thus: cells. It counts as functional, cell-based. The following applies: Homo sapiens, HCT-116, 72 h.
Description: Antiproliferative activity against human HCT-116 cells assessed as inhibition of cell growth incubated for 72 hrs by MTT assay
The subject of data set [7] is 4T1. Briefly: cells. The class given is functional, cell-based. The following applies: Mus musculus, 4T1, 72 h.
In data set [8] the test system is B16-F10. Briefly: cells. Particulars: Mus musculus, B16-F10, 72 h. It counts as functional, cell-based.
Description: Antiproliferative activity against mouse B16-F10 cells assessed as inhibition of cell growth incubated for 72 hrs by MTT assay
For data set [9], the system named is SK-OV-3. Briefly: cells. The class given is functional, cell-based. The following applies: Homo sapiens, SK-OV-3, 72 h.
Description: Antiproliferative activity against human SK-OV-3 cells assessed as inhibition of cell growth incubated for 72 hrs by MTT assay

In general, inhibition refers to the share of the control response that was lost under treatment. As a reminder, the IC50 is the point on the concentration scale where inhibition reaches its midpoint.

Chain of Histone deacetylase 3 (O15379 whole entry): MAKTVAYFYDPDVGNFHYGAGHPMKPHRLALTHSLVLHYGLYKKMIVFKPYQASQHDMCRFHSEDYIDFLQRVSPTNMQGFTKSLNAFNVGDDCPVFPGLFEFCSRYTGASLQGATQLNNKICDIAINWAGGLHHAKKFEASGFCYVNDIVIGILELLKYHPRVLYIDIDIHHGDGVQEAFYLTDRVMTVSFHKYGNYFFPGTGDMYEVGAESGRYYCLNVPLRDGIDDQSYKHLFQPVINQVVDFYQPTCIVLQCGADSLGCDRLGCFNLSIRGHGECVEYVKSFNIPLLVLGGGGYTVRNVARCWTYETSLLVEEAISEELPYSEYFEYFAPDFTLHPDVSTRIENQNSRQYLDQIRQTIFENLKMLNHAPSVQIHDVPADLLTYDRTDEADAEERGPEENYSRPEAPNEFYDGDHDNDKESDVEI
Chain of Histone deacetylase 1 (Q13547 whole entry): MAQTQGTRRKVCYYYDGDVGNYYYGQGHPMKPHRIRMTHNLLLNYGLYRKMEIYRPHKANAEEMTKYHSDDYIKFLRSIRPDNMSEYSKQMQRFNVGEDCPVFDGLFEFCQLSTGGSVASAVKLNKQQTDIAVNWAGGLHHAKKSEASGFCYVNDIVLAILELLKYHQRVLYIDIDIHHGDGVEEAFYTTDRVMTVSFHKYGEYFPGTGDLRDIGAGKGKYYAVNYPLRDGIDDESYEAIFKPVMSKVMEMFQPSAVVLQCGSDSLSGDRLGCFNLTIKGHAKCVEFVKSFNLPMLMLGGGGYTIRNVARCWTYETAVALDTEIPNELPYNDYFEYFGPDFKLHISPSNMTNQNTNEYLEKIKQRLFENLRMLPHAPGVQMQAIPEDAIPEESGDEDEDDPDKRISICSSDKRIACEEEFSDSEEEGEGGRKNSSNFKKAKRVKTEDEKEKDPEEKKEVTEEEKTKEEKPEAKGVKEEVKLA

As to `CCCNNC(=O)c1ccc(Cn2c3ccccc3c3c(-c4ccc(O)c(OC)c4)nc4ccccc4c32)cc1`, the figures for the inhibition in [1], in data set [2] and in data set [3] were 20%, 79% and less than 10%, respectively.
In the case of `CCCNNC(=O)c1ccc(Cn2c3ccccc3c3c(-c4ccc(C#N)cc4)nc4ccccc4c32)cc1`, the inhibition in data set [1] was less than 10%; in data set [2], 33%; in data set [3], less than 10%.
With `CCCNNC(=O)c1ccc(Cn2c3ccccc3c3c(-c4ccccc4)nc4ccccc4c32)cc1`, the inhibition in data set [1] was less than 10%; in data set [2] it was 57%; in data set [3], 24%.
`CCCNNC(=O)c1ccc(Cn2c3ccccc3c3c(-c4ccc(C(=O)NNCCC)cc4)nc4ccccc4c32)cc1`: the inhibition in data set [1] is less than 10%; in data set [2], 38%; in data set [3], less than 10%.
Turning to `CCCNNC(=O)c1ccc(Cn2c3ccccc3c3c(-c4ccc(OC)cc4)nc4ccccc4c32)cc1`, the inhibition in [1] was 29%; in data set [2], 58%; in [3] it was less than 10%.
The corresponding values for `CCCCCNNC(=O)c1ccc(Cn2c3ccccc3c3c(-c4ccccn4)nc4ccccc4c32)cc1` are 20%, 82% and less than 10%.
The corresponding values for `CCCNNC(=O)c1ccc(Cn2c3ccccc3c3c(C4CCN(C(=O)OC(C)(C)C)CC4)nc4ccccc4c32)cc1` are 22%, 73% and less than 10%.
Regarding `CCCNNC(=O)c1ccc(Cn2c3ccccc3c3c(-c4cc(Cl)ccc4O)nc4ccccc4c32)cc1`, the inhibition in [1] came to 31%; in data set [2], 47%; in data set [3], 30%.
On to `CCCCCCCNNC(=O)c1ccc(Cn2c3ccccc3c3c(-c4ccccn4)nc4ccccc4c32)cc1`, for which the figures for the inhibition in data set [1], in [2] and in [3] were 22%, 53% and less than 10%, respectively.
Taken in the same sequence, the figures for `CCCCNNC(=O)c1ccc(Cn2c3ccccc3c3c(-c4ccccn4)nc4ccccc4c32)cc1` were 35%, 92% and less than 10%.
As to `CCCN(CCC)NC(=O)c1ccc(Cn2c3ccccc3c3c(-c4cccc(F)c4)nc4ccccc4c32)cc1`, the inhibition in data set [1] was 27%; in [2], 31%; in [3], less than 10%.
Turning to `CCCNNC(=O)c1ccc(Cn2c3ccccc3c3c(-c4cccc([N+](=O)[O-])c4)nc4ccccc4c32)cc1`, the inhibition in data set [1] was less than 10%; in data set [2] it was 47%; in data set [3], 18%.
Compound `CC(/C=C/C(=O)NO)=C\[C@@H](C)C(=O)c1ccc(N(C)C)cc1` [TRICHOSTATIN] showed a Retention_time in [4] of 14.7 min.
For the compound `CCCNNC(=O)c1ccc(Cn2c3ccccc3c3c(-c4cn(C)c5ccccc45)nc4ccccc4c32)cc1`, the results for the inhibition in [1], in data set [2] and in data set [3] were less than 10%, 36% and less than 10%, respectively.
Regarding `CCNNC(=O)c1ccc(Cn2c3ccccc3c3c(-c4ccccn4)nc4ccccc4c32)cc1`, the inhibition was 11% in [1], 32% in data set [2] and less than 10% in data set [3].
Consider `CCCNNC(=O)c1ccc(Cn2c3ccccc3c3c(-c4cc(OC)ccc4O)nc4ccccc4c32)cc1`, for which the inhibition is 27% in data set [1], 66% in data set [2] and 14% in [3].
Take `CCCNNC(=O)c1ccc(Cn2c3ccccc3c3c(-c4ccncc4)nc4ccccc4c32)cc1`: the inhibition in [1] was found to be 12%; in [2], 65%; in data set [3], 19%.
In the case of `CC(C)CCNNC(=O)c1ccc(Cn2c3ccccc3c3c(-c4ccccn4)nc4ccccc4c32)cc1`, the inhibition in [1], in data set [2] and in [3] was less than 10% each time.
On to `Nc1ccccc1NC(=O)c1ccc(CNC(=O)OCc2cccnc2)cc1` [ENTINOSTAT], for which the IC50 in [5] was more than 10 µM; in data set [6], 1.67 µM; in data set [7], 6.85 µM; in data set [8] it was 13.9 µM; in data set [9], more than 10 µM. Moreover, the inhibition in data set [1] was determined as 88%; in data set [3] it was 24%.
Take `CCCN(CCC)NC(=O)c1ccc(Cn2c3ccccc3c3c(-c4ccccn4)nc4ccccc4c32)cc1`: the inhibition in [1] was 23%; in [2], 29%; in data set [3], less than 10%.
The corresponding values for `CCCCCCCCNNC(=O)c1ccc(Cn2c3ccccc3c3c(-c4ccccn4)nc4ccccc4c32)cc1` are less than 10%, 40% and 26%.
Taken in the same sequence, the figures for `C/C=C/CNNC(=O)c1ccc(Cn2c3ccccc3c3c(-c4ccccn4)nc4ccccc4c32)cc1` were 39%, 91% and less than 10%.
Turning to `CCCNNC(=O)c1ccc(Cn2c3ccccc3c3c(-c4cccnc4)nc4ccccc4c32)cc1`, the inhibition in [1] came out at 16%; in data set [2], 84%; in [3], 21%.
For the compound `CCCCCCCCCNNC(=O)c1ccc(Cn2c3ccccc3c3c(-c4ccccn4)nc4ccccc4c32)cc1`, the results for the inhibition in data set [1], in data set [2] and in data set [3] were less than 10%, 29% and less than 10%, respectively.
As for `CC(C)NNC(=O)c1ccc(Cn2c3ccccc3c3c(-c4ccccn4)nc4ccccc4c32)cc1`, the inhibition in [1], in data set [2] and in data set [3] was less than 10% each time.
As to `CCCN(CCC)NC(=O)c1ccc(Cn2c3ccccc3c3c(C4CCN(C(=O)OC(C)(C)C)CC4)nc4ccccc4c32)cc1`, the inhibition in data set [1], in data set [2] and in data set [3] was less than 10% throughout.
Regarding `CCCCCCCCCCNNC(=O)c1ccc(Cn2c3ccccc3c3c(-c4ccccn4)nc4ccccc4c32)cc1`, the inhibition in data set [1], in data set [2] and in [3] was less than 10% each time.
For `CCCNNC(=O)c1ccc(Cn2c3ccccc3c3c(-c4cccc(Cl)c4)nc4ccccc4c32)cc1`, the inhibition in data set [1] was 25%; in [2] it was 73%; in [3] it was less than 10%.
Taken in the same sequence, the figures for `CCCNNC(=O)c1ccc(Cn2c3ccccc3c3c(-c4cccc(F)c4)nc4ccccc4c32)cc1` were 20%, 69% and less than 10%.

The values above are taken from ChEMBL document CHEMBL6096732 (J Med Chem, 2025).
